{"source": "paper PMC7763155", "about": "“Design and Characterisation of Inhibitory Peptides against Bleg1_2478, an Evolutionary Divergent B3 Metallo-β-lactamase” (Molecules, 2020)", "molecules": {"B1": {"name": "RSWPWH inhibitory peptide (peptide)", "peptide": "RSWPWH"}, "B2": {"name": "SSWWDR inhibitory peptide (peptide)", "peptide": "SSWWDR"}}, "key": {"Bleg1_2478 [1]": {"molecular_target": "T1, Bleg1_2478 (Shouchella lehensis (Bacillus lehensis), UniProt A0A060M4R1)", "details": "in words; ref [22]; cited from earlier work", "description": "Biochemical characterization of purified recombinant Bleg1_2478 further confirmed that it was indeed capable of degrading β-lactam antibiotics, with ampicillin ..."}, "Bleg1_2478 [2]": {"molecular_target": "T1, Bleg1_2478", "assay": "Isothermal titration calorimetry (ITC) with Bleg1_2478", "assay_type": "binding, Bacillus lehensis G1", "procedure": "ITC measurement was performed at 30 °C with nanoisothermal titration calorimetry, TA Instrument, USA at Malaysian Genome Institute. The peptides were dissolved in 20 mM sodium phosphate buffer (Na2HPO4-NaH2PO4) (pH 7.0). Bleg1_2478 protein sample, the selected peptide inhibitors and 20 mM sodium phosphate buffer (Na2HPO4-NaH2PO4) (pH 7.0) were firstly degassed by using Themovac Unit. The experiment was carried out at 30 °C with stirring speed of 300 rpm. The calorimetry data were subsequently analysed using NanoAnalyze Software v3.8.0. (New Castle, DE, USA)"}, "MBLs": {"tested_on": "MBLs", "details": "in words; ref [20]; cited from earlier work", "description": "(§1) AMR among bacteria can be acquired through various means, i.e., through: (1) hydrolysis or inactivation of antibiotics by synthesizing enzymes; (2) redox process by exploiting the oxidation or reduction of the antibiotics; (3) modification of antibiotics by chemical substitution; (4) modification of the inhibition binding site in the target; (5) mutations on genes that encode the target or efflux pump that affect antibiotics uptake; (6) horizontal gene transfer where resistant genes are transferred from one pathogen to another via transduction, conjugation or ..."}, "Class A SBLs": {"tested_on": "Class A SBLs", "details": "in words; ref [17],[18],[19]; cited from earlier work", "description": "as §1"}, "Bleg1_2478 [3]": {"molecular_target": "T1, Bleg1_2478", "assay": "Inhibitory assay of designed peptides against Bleg1_2478 (ampicillin hydrolysis)", "assay_type": "biochemical, Bacillus lehensis G1", "details": "pH 7.0, 30 °C, triplicates", "procedure": "The ability of the peptides in inhibiting Bleg1_2478 was investigated via inhibitory assay. Firstly, enzymatic assay of purified Bleg1_2478 recombinant protein using ampicillin as the substrate was performed, serving as the positive control. The assay was carried out based on the method by. All assays were performed at 30 °C in total assay volume of 3 mL containing 20 mM sodium phosphate (Na2HPO4-NaH2PO4) (pH 7.0), 20 µg/mL BSA, 100 µM ZnSO4, 10 µM Bleg1_2478 and 100 µM ampicillin. The reaction was monitored by recording the absorbance at 235 nm every 1 min for a total duration of 6 min using a 50 Bio UV Visible Spectrophotometry. […] All assays were done in triplicates."}, "[4]": {"molecular_target": "Bleg1_2478 recombinant protein (Bacillus lehensis G1)"}, "[5]": {"molecular_target": "Bleg1_2478 recombinant protein (Bacillus lehensis G1)", "assay": "ITC; nano isothermal titration calorimetry (TA Instruments), 30 °C, 20 mM sodium phosphate buffer pH 7.0, stirring 300 rpm; which partner was in the cell and the concentrations are not stated"}, "[6]": {"molecular_target": "Bleg1_2478 recombinant protein (Bacillus lehensis G1)", "remark": "listed apart in the source"}, "[7]": {"details": "ITC, 30 °C, 20 mM sodium phosphate pH 7.0, 300 rpm, read-out: Dissociation constant, Kd"}, "[8]": {"details": "10 µM peptide, 10 µM enzyme, 100 µM ampicillin"}}, "note": "Read-outs that look alike come from different tables or passages of the source. No end group written: not given here."}
{"molecule": "CC1(C)S[C@@H]2[C@H](NC(=O)[C@H](N)c3ccccc3)C(=O)N2[C@H]1C(=O)O", "note": "[Ampicillin, ampicillin, reference compound]", "values": [{"measurement": "Substrate preference", "setting": "Bleg1_2478 [1]", "result": "preferred substrate"}, {"measurement": "Kd", "setting": "Bleg1_2478 [2]", "result": 1470, "unit": "nM"}, {"measurement": "Entropy, ΔS", "setting": "Bleg1_2478 [2]; ITC, 30 °C, 20 mM sodium phosphate pH 7.0", "result": "−248.00", "unit": "J/mol·K"}, {"measurement": "Association constant, Ka", "setting": "Bleg1_2478 [2]; ITC, 30 °C, 20 mM sodium phosphate pH 7.0, 300 rpm", "result": 680000, "unit": "M⁻¹"}, {"measurement": "Number of binding sites from stoichiometry", "setting": "Bleg1_2478 [2]; ITC, in words", "result": "one binding site"}]}
{"molecule": "O=C(O)[C@H]1/C(=C/CO)O[C@@H]2CC(=O)N21", "note": "[clavulanate]", "values": [{"measurement": "Effectiveness against MBLs", "setting": "MBLs", "result": "not"}, {"measurement": "Effectiveness against Class A SBLs", "setting": "Class A SBLs", "result": "effective"}]}
{"molecule": "CC1(C)[C@H](C(=O)O)N2C(=O)C[C@H]2S1(=O)=O", "note": "[sulbactam]", "values": [{"measurement": "Effectiveness against MBLs", "setting": "MBLs", "result": "not"}, {"measurement": "Effectiveness against Class A SBLs", "setting": "Class A SBLs", "result": "effective"}]}
{"molecule": "C[C@]1(Cn2ccnn2)[C@H](C(=O)O)N2C(=O)C[C@H]2S1(=O)=O", "note": "[tazobactam]", "values": [{"measurement": "Effectiveness against MBLs", "setting": "MBLs", "result": "not"}, {"measurement": "Effectiveness against Class A SBLs", "setting": "Class A SBLs", "result": "effective"}]}
{"molecule": "RSWPWH [RSWPWH]", "values": [{"measurement": "Kd", "setting": "Bleg1_2478 [2]; [7]", "result": 497, "unit": "nM"}, {"measurement": "Fold increase in binding strength (Kd)", "setting": "Bleg1_2478 [2]; ITC, compared to ampicillin", "result": 34, "unit": "fold"}, {"measurement": "Inhibition of Bleg1_2478", "setting": "Bleg1_2478 [3]; 0.75 µM peptide", "result": 12, "unit": "%"}, {"measurement": "Inhibition of Bleg1_2478", "setting": "Bleg1_2478 [3]; [8]", "result": 92, "unit": "%"}]}
{"molecule": "SSWWDR [SSWWDR]", "values": [{"measurement": "Kd", "setting": "Bleg1_2478 [2]; [7]", "result": 992, "unit": "nM"}, {"measurement": "Fold increase in binding affinity (Ka)", "setting": "Bleg1_2478 [2]; ITC, compared to ampicillin", "result": 1.5, "unit": "fold"}, {"measurement": "Fold increase in binding strength (Kd)", "setting": "Bleg1_2478 [2]; ITC, compared to ampicillin", "result": 68, "unit": "fold"}, {"measurement": "Inhibition of Bleg1_2478", "setting": "Bleg1_2478 [3]; 0.25 µM peptide", "result": 4, "unit": "%"}, {"measurement": "Inhibition of Bleg1_2478", "setting": "Bleg1_2478 [3]; 0.50 µM peptide", "result": 48, "unit": "%"}, {"measurement": "Inhibition of Bleg1_2478", "setting": "Bleg1_2478 [3]; 0.75 µM peptide", "result": 64, "unit": "%"}, {"measurement": "Inhibition of Bleg1_2478", "setting": "Bleg1_2478 [3]; [8]", "result": 88, "unit": "%"}, {"measurement": "Inhibition of Bleg1_2478", "setting": "Bleg1_2478 [3]; 20 µM peptide, 10 µM enzyme, 100 µM ampicillin", "result": 96, "unit": "%"}]}
{"molecule": "B1", "values": [{"measurement": "percent inhibition of Bleg1 2478 activity on ampicillin at 0.75 to 20 µM peptide (12% at 0.75 µM, 54% at 0.90 µM, 68% at 1 µM, 92% at 10 µM, the same at 20 µM)", "setting": "[4]", "result": 92, "unit": "%"}, {"measurement": "Ka", "setting": "[5]", "result": "2.01e+06", "unit": "M⁻¹"}, {"measurement": "Kd", "setting": "[5]", "result": 497, "unit": "nM"}, {"measurement": "stoichiometry N", "setting": "[5]", "result": 0.941}, {"measurement": "IC50 of inhibition of Bleg1 2478 enzymatic activity (hydrolysis of 100 µM ampicillin by 10 µM Bleg1 2478, absorbance at 235 nm, 30 °C, pH 7.0)", "setting": "[6]", "result": 0.9, "unit": "µM"}]}
{"molecule": "B2", "values": [{"measurement": "percent inhibition of Bleg1 2478 activity on ampicillin at 0.25 to 20 µM peptide (4% at 0.25 µM, 48% at 0.50 µM, 64% at 0.75 µM, 76% at 1 µM, 88% at 10 µM, 96% at 20 µM)", "setting": "[4]", "result": 96, "unit": "%"}, {"measurement": "Ka", "setting": "[5]", "result": "1.01e+06", "unit": "M⁻¹"}, {"measurement": "Kd", "setting": "[5]", "result": 992, "unit": "nM"}, {"measurement": "stoichiometry N", "setting": "[5]", "result": 0.722}, {"measurement": "IC50 of inhibition of Bleg1 2478 enzymatic activity (hydrolysis of 100 µM ampicillin by 10 µM Bleg1 2478, absorbance at 235 nm, 30 °C, pH 7.0)", "setting": "[6]", "result": 0.5, "unit": "µM"}]}
